In patent US6608103B2, “Inhibitor for neovasculation, cell multiplication, lumen formation and FGF” (Fuji Chemical Industry Co., Ltd., priority 2001, dated 2003):
“Also recorded” adds a separate entry of the source.

Columns and labels:
Type in all cases: cell-based, bovine
[1] = tested on: BAEC; assay: Effects of tocotrienols on multiplication of BAEC, MTT assay; conditions: for Absorbance: MTT; for inhibitory action against cell multiplication: Table 1
Method: Normal bovine aortic endothelial cells (BAEC) were manufactured by Cell Systems Co., and purchased through Dainippon Seiyaku Co., Ltd.
A cell suspension was prepared by adding the cells to MEM (Sigma Chemical Co.) containing 10 v/v (%) fetal bovine serum (FBS), 20 IU/ml penicillin and 20 IU/ml streptomycin (MEM+10% FBS) in a concentration of 1×10^5 cells/ml, and cultured in a 5% CO2 incubator at 37° C. by using a 60 mm dish coated with type I collagen with subculturing every 2 to 3 days.
Each of the above samples was added to MEM containing 2% (v/v) FBS, 20 IU/ml penicillin and 20 IU/ml streptomycin (MEM+2% FBS), and subjected to testing.
Effects of tocotrienols on the multiplication of BAEC were examined by using MTT assay.
(§1) Each one microplate was taken out after 0, 24, 48 or 96 hours from placing the culture medium containing a sample. In the case of the microplate taken out after 96 hours, the culture medium was once changed after 48 hours. 3 mg/ml MTT solution PBS (−) was put in each well in an amount of 50 μl/well, and incubated for 3 hours in a CO2 incubator. After filling each well with phosphate buffered saline (PBS(−)), liquid in each well was evacuated, and isopropyl alcohol containing 0.04 mol/l HCL was put in each well in an amount of 200 μl/well. The microplates were allowed to stand overnight in a dark place, and then, absorbance at 595 nm and 655 nm (dual) was measured by a microplate reader.
In the case of Control group A, no sample was added.

[2] = tested on: BAEC; assay: Inhibitory action against FGF activity, MTT assay on BAEC with FGF 20 ng/ml; parameters: key to Cell Multiplication: ↑: Accelerated; /: Tendency to increase; No change; ↓: Inhibited; ↓↓: Strongly inhibited; conditions: for Absorbance: MTT; for Cell Multiplication: summary
Method: The fibroblast growth factor sample was prepared by dissolving a commercial FGF (Sigma Chemical Co.) in MEM (Sigma Chemical Co.)
as §1
In the case of Control group B, no sample was added.

[3] = tested on: BAEC; assay: Neovasculation / lumen formation of BAEC between two layers of type I collagen gel
Method: BAEC was cultured between two layers of type I collagen gel, and a lumen-like netting structure formed therebetween was evaluated.
(§2) Eight parts by volume of “Vitrogen Collagen” (Collagen Co.), 1 part by volume of 0.1 N NaOH and 1 part by volume of ×10 MEM (GIBCO BRL) were placed in a tube, and mixed quickly in an ice bath. The culture solution was removed by suction, and 0.5 ml/well of the above mixture containing collagen was pipetted into each well. The microplate was placed in a CO2 incubator for about 30 minutes to gelatinize it. 1.5 ml of a medium (MEM | 2% FBS) containing a sample was added, and continued to incubate while changing the medium every second day.
(§3) The variation of cells were observed by a microscope by taking a photograph, and lumen formation was evaluated by counting the number of branches of cells forming lumen.
The inhibition test against lumen formation was carried out in the same manner as Example 15, except that α-tocopherol was substituted for DL-α-tocotrienol.

[4] = tested on: BAEC; assay: Cell multiplication of BAEC, survival rate of cells using WST-1; conditions: for Survival Rate of Cells (% of control): 24 hours, WST-1; for IC50: determined from the graph of FIG. 1 (abscissa μM), read-out: median growth inhibition concentration (IC50)
Method: Influence of tocotrienols on cell multiplication of BAEC was examined in various concentrations. The cell multiplication was evaluated by determining the survival rate of cells using WST-1, which makes it possible to conduct high sensitivity measurement, instead of conventional MTT.
As a blank, the culture medium alone was incubated without adding cells. […] The microplate was taken out after 24 hours from placing the culture medium containing a sample. 10 μl/well of WST-1 solution was added to each well, and incubated in a CO2 incubator. After 3 hours, absorbance at 450 nm and 655 nm (dual) of each well was measured by a microplate reader.
The samples employed were DL-α-tocotrienol, DL-γ-tocotrienol and DL-δ-tocotrienol. In the case of Control group I, no sample was added.
The survival rate of cells was determined by the following formula:
Survival Rate of Cells=(S−B)/(C−B)×100(%)
The results of Table 10 were made in a graph shown in FIG. 1, and median growth inhibition concentration (IC50) was determined from the graph. In the figure, the numbers on the ordinate indicate the survival rate of cells (% of control), and the numbers on the abscissa indicate concentration (μM). ● is DL-α-tocotrienol, ▪ is DL-β-tocotrienol, Δ is DL-γ-tocotrienol, and X is DL-δ-tocotrienol, respectively.

[5] = tested on: BAEC; assay: Inhibition against lumen formation induced by FGF; parameters: key to Lumen Formation: ↑: Accelerated; /: Tendency to increase; No change; ↓: Inhibited; ↓↓: Strongly inhibited; conditions: for Lumen Formation: summary
Method: as §2, §3
The test was carried out similar to Examples 12-14, wherein FGF was added together with each tocotrienol. In the case of Control group E, no sample was added. […]

[6] = 0 hr, FGF 20 ng/ml + sample 10 μM
[7] = 24 hrs, FGF 20 ng/ml + sample 10 μM
[8] = 48 hrs, FGF 20 ng/ml + sample 10 μM
[9] = 96 hrs, FGF 20 ng/ml + sample 10 μM
[10] = FGF (20 ng/ml) + sample (10 μM)
[11] = FGF (20 ng/ml) + sample (100 μM)

| Compound | Absorbance ([1]; 0 hr, sample 10 μM) | Absorbance ([1]; 24 hrs, sample 10 μM) | Absorbance ([1]; 48 hrs, sample 10 μM) | Absorbance ([1]; 96 hrs, sample 10 μM) | Absorbance [2, 6] | Absorbance [2, 7] | Absorbance [2, 8] | Absorbance [2, 9] | Cell Multiplication [2, 10] | inhibition of lumen formation ([3]; 10 μM) | Number of Cells Forming Lumen/cm^2 ([3]; Table 4, 10 μM) | IC50 [4] [µM] | inhibition of lumen formation induced by FGF ([5]; 10 μM + FGF 20 ng/ml) | Number of Cells Forming Lumen/cm^2 ([5]; sample 10 μM + FGF 20 ng/ml) | Lumen Formation [5, 10] | inhibitory action against cell multiplication ([1]; 10 μM) | Survival Rate of Cells (% of control) ([4]; 2 μM) | Survival Rate of Cells (% of control) ([4]; 4 μM) | Survival Rate of Cells (% of control) ([4]; 6 μM) | Survival Rate of Cells (% of control) ([4]; 8 μM) | also measured |
| --- | --- | --- | --- | --- | --- | --- | --- | --- | --- | --- | --- | --- | --- | --- | --- | --- | --- | --- | --- | --- | --- |
| CC(C)=CCC/C(C)=C/CC/C(C)=C/CC[C@]1(C)CCc2c(C)c(O)c(C)c(C)c2O1 (racemic) [DL-α-Tocotrienol, α-tocotrienol] | 0.090 ± 0.003 | 0.141 ± 0.008 | 0.271 ± 0.010 | 0.382 ± 0.014 | 0.044 ± 0.002 | 0.096 ± 0.004 | 0.290 ± 0.010 | 0.328 ± 0.018 | ↑ | equivalent to the control group | 39.25 ± 1.84 /cm^2 | 38 | inhibited the lumen formation induced by FGF | 25.25 ± 1.55 /cm^2 | → | – | – | – | – | – | inhibition of lumen formation ([3]; 50 μM): completely inhibited formation; Number of Cells Forming Lumen/cm^2 ([3]; Table 4, 30 μM): 31.75 ± 1.25 /cm^2; Number of Cells Forming Lumen/cm^2 ([3]; Table 4, 50 μM): 0.00 ± 0.00 /cm^2; Number of Cells Forming Lumen/cm^2 ([3]; Table 4, 100 μM): 39.25 ± 2.17 /cm^2; Survival Rate of Cells (% of control) ([4]; 25 μM): 111.0 ± 6.8 % of control; Survival Rate of Cells (% of control) ([4]; 30 μM): 115.8 ± 9.2 % of control; Survival Rate of Cells (% of control) ([4]; 35 μM): 67.3 ± 11.6 % of control; Survival Rate of Cells (% of control) ([4]; 40 μM): 39.1 ± 12.7 % of control; Survival Rate of Cells (% of control) ([4]; 45 μM): 6.9 ± 5.9 % of control |
| CC(C)=CCC/C(C)=C/CC/C(C)=C/CC[C@]1(C)CCc2c(C)c(O)cc(C)c2O1 (racemic) [DL-β-Tocotrienol, β-tocotrienol] | 0.084 ± 0.002 | 0.029 ± 0.004 | 0.39 ± 0.007 | 0.011 ± 0.002 | 0.042 ± 0.002 | 0.036 ± 0.003 | 0.055 ± 0.005 | 0.039 ± 0.004 | ↓↓ | – | – | 6.5 | inhibited the lumen formation completely; also recorded: exhibit inhibitory action against lumen formation | 0.00 ± 0.00 /cm^2 | ↓↓ | remarkable inhibitory action | 89.4 ± 5.1 % of control | 97.8 ± 7.9 % of control | 57.1 ± 5.9 % of control | 5.6 ± 5.4 % of control | Survival Rate of Cells (% of control) ([4]; 10 μM): 0.0 ± 0.0 % of control |
| CC(C)=CCC/C(C)=C/CC/C(C)=C/CC[C@]1(C)CCc2cc(O)cc(C)c2O1 (racemic) [DL-δ-Tocotrienol, δ-tocotrienol] | 0.103 ± 0.001 | 0.004 ± 0.000 | 0.003 ± 0.000 | 0.002 ± 0.000 | 0.040 ± 0.002 | 0.003 ± 0.000 | 0.003 ± 0.000 | 0.003 ± 0.000 | ↓↓ | inhibited lumen formation completely | 0.00 ± 0.00 /cm^2 | 5.5 | inhibited the lumen formation completely; also recorded: exhibit inhibitory action against lumen formation | 0.00 ± 0.00 /cm^2 | ↓↓ | remarkable inhibitory action | 93.0 ± 6.8 % of control | 109.4 ± 8.0 % of control | 0.9 ± 1.3 % of control | 5.8 ± 4.5 % of control | Survival Rate of Cells (% of control) ([4]; 10 μM): 0.4 ± 0.9 % of control |
| Cc1c(C)c2c(c(C)c1O)CC[C@@](C)(CCC[C@H](C)CCC[C@H](C)CCCC(C)C)O2 [α-Tocopherol, α-tocopherol, reference compound] | – | – | – | – | – | – | – | – | – | – | – | – | – | – | – | – | – | – | – | – | inhibitory action against cell multiplication ([1]; 100 μM): does not exhibit inhibitory action; Absorbance ([1]; 0 hr, sample 100 μM): 0.092 ± 0.003; Absorbance ([1]; 24 hrs, sample 100 μM): 0.140 ± 0.003; Absorbance ([1]; 48 hrs, sample 100 μM): 0.268 ± 0.004; Absorbance ([1]; 96 hrs, sample 100 μM): 0.520 ± 0.012; Absorbance ([2]; 0 hr, FGF 20 ng/ml + sample 100 μM): 0.045 ± 0.002; Absorbance ([2]; 24 hrs, FGF 20 ng/ml + sample 100 μM): 0.080 ± 0.004; Absorbance ([2]; 48 hrs, FGF 20 ng/ml + sample 100 μM): 0.242 ± 0.014; Absorbance ([2]; 96 hrs, FGF 20 ng/ml + sample 100 μM): 0.360 ± 0.020; Cell Multiplication [2, 11]: ↑; inhibition of lumen formation ([3]; 100 μM): did not inhibit lumen formation; inhibition of lumen formation induced by FGF ([5]; 100 μM + FGF 20 ng/ml): not found; Number of Cells Forming Lumen/cm^2 ([5]; sample 100 μM + FGF 20 ng/ml): 25.25 ± 2.10 /cm^2; Lumen Formation [5, 11]: → |
